Results published in ChEMBL document CHEMBL5352447, “Development of [1,2]oxazoloisoindoles tubulin polymerization inhibitors: Further chemical modifications and potential therapeutic effects against lymphomas” (Eur J Med Chem, 2022).

These compounds were tested on CCRF-CEM (assay: Antiproliferative activity against human CCRF-CEM cells assessed as cell growth inhibition incubated for 72 hrs by MTT assay).
Format: functional

Question: With `COc1ccc(Cn2cc3c(c2-c2cc(OC)c(OC)c(OC)c2)CCc2c(CN4CCCC4)noc2-3)cc1` as the compound, how does the GI50 read?
Answer: Its GI50 is 730 nM.

Each compound was assayed on HL-60(TB) (assay: Antiproliferative activity against human HL-60(TB) cells assessed as cell growth inhibition incubated for 72 hrs by MTT assay).
Format: functional

Question: For `COc1ccc(Cn2cc3c(c2-c2cc(OC)c(OC)c(OC)c2)CCc2c(CN4CCCC4)noc2-3)cc1`, which GI50 is on record?
Answer: Its GI50 is 320 nM.

What follows are compounds tested on MOLT-4 (assay: Antiproliferative activity against human MOLT-4 cells assessed as cell growth inhibition incubated for 72 hrs by MTT assay).
Format: functional

Question: `COc1ccc(Cn2cc3c(c2-c2cc(OC)c(OC)c(OC)c2)CCc2c(CN4CCCC4)noc2-3)cc1` was tested. Which GI50 did it give?
Answer: Its GI50 is 1470 nM.

Each compound was assayed on RPMI-8226 (assay: Antiproliferative activity against human RPMI-8226 cells assessed as cell growth inhibition incubated for 72 hrs by MTT assay).
Format: functional

Question: How did the GI50 turn out when `COc1ccc(Cn2cc3c(c2-c2cc(OC)c(OC)c(OC)c2)CCc2c(CN4CCCC4)noc2-3)cc1` was run?
Answer: Its GI50 is 1270 nM.

What follows are compounds tested on SR (assay: Antiproliferative activity against human SR cells assessed as cell growth inhibition incubated for 72 hrs by MTT assay).
Format: functional

Question: How did the GI50 turn out when `COc1ccc(Cn2cc3c(c2-c2cc(OC)c(OC)c(OC)c2)CCc2c(CN4CCCC4)noc2-3)cc1` was run?
Answer: Its GI50 is 360 nM.

Each compound was assayed on EKVX (assay: Antiproliferative activity against human EKVX cells assessed as cell growth inhibition incubated for 72 hrs by MTT assay).
Format: functional

Question: With `COc1ccc(Cn2cc3c(c2-c2cc(OC)c(OC)c(OC)c2)CCc2c(CN4CCCC4)noc2-3)cc1` as the compound, how does the GI50 read?
Answer: The GI50 was 2110 nM.

Each compound was assayed on HOP-62 (assay: Antiproliferative activity against human HOP-62 cells assessed as cell growth inhibition incubated for 72 hrs by MTT assay).
Format: functional

Question: For `COc1ccc(Cn2cc3c(c2-c2cc(OC)c(OC)c(OC)c2)CCc2c(CN4CCCC4)noc2-3)cc1`, which GI50 is on record?
Answer: The GI50 was 1000 nM.

The compounds below were run on NCI-H23 (assay: Antiproliferative activity against human NCI-H23 cells assessed as cell growth inhibition incubated for 72 hrs by MTT assay).
Format: functional

Question: For `COc1ccc(Cn2cc3c(c2-c2cc(OC)c(OC)c(OC)c2)CCc2c(CN4CCCC4)noc2-3)cc1`, which GI50 is on record?
Answer: The GI50 was 2800 nM.

These compounds were tested on NCI-H522 (assay: Antiproliferative activity against human NCI-H522 cells assessed as cell growth inhibition incubated for 72 hrs by MTT assay).
Format: functional

Question: With `COc1ccc(Cn2cc3c(c2-c2cc(OC)c(OC)c(OC)c2)CCc2c(CN4CCCC4)noc2-3)cc1` as the compound, how does the GI50 read?
Answer: Its GI50 is 470 nM.

What follows are compounds tested on HCC 2998 (assay: Antiproliferative activity against human HCC 2998 cells assessed as cell growth inhibition incubated for 72 hrs by MTT assay).
Format: functional

Question: With `COc1ccc(Cn2cc3c(c2-c2cc(OC)c(OC)c(OC)c2)CCc2c(CN4CCCC4)noc2-3)cc1` as the compound, how does the GI50 read?
Answer: The GI50 was 1840 nM.

Each compound was assayed on HCT-116 (assay: Antiproliferative activity against human HCT-116 cells assessed as cell growth inhibition incubated for 72 hrs by MTT assay).
Format: functional

Question: For `COc1ccc(Cn2cc3c(c2-c2cc(OC)c(OC)c(OC)c2)CCc2c(CN4CCCC4)noc2-3)cc1`, which GI50 is on record?
Answer: The GI50 was 470 nM.

The compounds below were run on HCT-15 (assay: Antiproliferative activity against human HCT-15 cells assessed as cell growth inhibition incubated for 72 hrs by MTT assay).
Format: functional

Question: How did the GI50 turn out when `COc1ccc(Cn2cc3c(c2-c2cc(OC)c(OC)c(OC)c2)CCc2c(CN4CCCC4)noc2-3)cc1` was run?
Answer: The GI50 was 480 nM.

Each compound was assayed on SW-620 (assay: Antiproliferative activity against human SW620 cells assessed as cell growth inhibition incubated for 72 hrs by MTT assay).
Format: functional

Question: With `COc1ccc(Cn2cc3c(c2-c2cc(OC)c(OC)c(OC)c2)CCc2c(CN4CCCC4)noc2-3)cc1` as the compound, how does the GI50 read?
Answer: Its GI50 is 540 nM.

These compounds were tested on SF-295 (assay: Antiproliferative activity against human SF-295 cells assessed as cell growth inhibition incubated for 72 hrs by MTT assay).
Format: functional

Question: With `COc1ccc(Cn2cc3c(c2-c2cc(OC)c(OC)c(OC)c2)CCc2c(CN4CCCC4)noc2-3)cc1` as the compound, how does the GI50 read?
Answer: The GI50 was 460 nM.

The compounds below were run on SF-539 (assay: Antiproliferative activity against human SF-539 cells assessed as cell growth inhibition incubated for 72 hrs by MTT assay).
Format: functional

Question: How did the GI50 turn out when `COc1ccc(Cn2cc3c(c2-c2cc(OC)c(OC)c(OC)c2)CCc2c(CN4CCCC4)noc2-3)cc1` was run?
Answer: Its GI50 is 750 nM.

The compounds below were run on SNB-19 (assay: Antiproliferative activity against human SNB-19 cells assessed as cell growth inhibition incubated for 72 hrs by MTT assay).
Format: functional

Question: With `COc1ccc(Cn2cc3c(c2-c2cc(OC)c(OC)c(OC)c2)CCc2c(CN4CCCC4)noc2-3)cc1` as the compound, how does the GI50 read?
Answer: Its GI50 is 780 nM.

Each compound was assayed on SNB-75 (assay: Antiproliferative activity against human SNB-75 cells assessed as cell growth inhibition incubated for 72 hrs by MTT assay).
Format: functional

Question: For `COc1ccc(Cn2cc3c(c2-c2cc(OC)c(OC)c(OC)c2)CCc2c(CN4CCCC4)noc2-3)cc1`, which GI50 is on record?
Answer: Its GI50 is 670 nM.

These compounds were tested on U-251 (assay: Antiproliferative activity against human U-251 cells assessed as cell growth inhibition incubated for 72 hrs by MTT assay).
Format: functional

Question: `COc1ccc(Cn2cc3c(c2-c2cc(OC)c(OC)c(OC)c2)CCc2c(CN4CCCC4)noc2-3)cc1` was tested. Which GI50 did it give?
Answer: Its GI50 is 540 nM.

These compounds were tested on Malme-3M (assay: Antiproliferative activity against human Malme-3M cells assessed as cell growth inhibition incubated for 72 hrs by MTT assay).
Format: functional

Question: With `COc1ccc(Cn2cc3c(c2-c2cc(OC)c(OC)c(OC)c2)CCc2c(CN4CCCC4)noc2-3)cc1` as the compound, how does the GI50 read?
Answer: The GI50 was 500 nM.

The compounds below were run on M14 (assay: Antiproliferative activity against human M14 cells assessed as cell growth inhibition incubated for 72 hrs by MTT assay).
Format: functional

Question: Which GI50 does the source give for `COc1ccc(Cn2cc3c(c2-c2cc(OC)c(OC)c(OC)c2)CCc2c(CN4CCCC4)noc2-3)cc1` here?
Answer: Its GI50 is 580 nM.

Each compound was assayed on MDA-MB-435 (assay: Antiproliferative activity against human MDA-MB-435 cells assessed as cell growth inhibition incubated for 72 hrs by MTT assay).
Format: functional

Question: `COc1ccc(Cn2cc3c(c2-c2cc(OC)c(OC)c(OC)c2)CCc2c(CN4CCCC4)noc2-3)cc1` was tested. Which GI50 did it give?
Answer: The GI50 was 240 nM.

The compounds below were run on SK-MEL-2 (assay: Antiproliferative activity against human SK-MEL-2 cells assessed as cell growth inhibition incubated for 72 hrs by MTT assay).
Format: functional

Question: With `COc1ccc(Cn2cc3c(c2-c2cc(OC)c(OC)c(OC)c2)CCc2c(CN4CCCC4)noc2-3)cc1` as the compound, how does the GI50 read?
Answer: The GI50 was 13200 nM.

What follows are compounds tested on SK-MEL-28 (assay: Antiproliferative activity against human SK-MEL-28 cells assessed as cell growth inhibition incubated for 72 hrs by MTT assay).
Format: functional

Question: `COc1ccc(Cn2cc3c(c2-c2cc(OC)c(OC)c(OC)c2)CCc2c(CN4CCCC4)noc2-3)cc1` was tested. Which GI50 did it give?
Answer: Its GI50 is 11500 nM.

Each compound was assayed on SK-MEL-5 (assay: Antiproliferative activity against human SK-MEL-5 cells assessed as cell growth inhibition incubated for 72 hrs by MTT assay).
Format: functional

Question: For `COc1ccc(Cn2cc3c(c2-c2cc(OC)c(OC)c(OC)c2)CCc2c(CN4CCCC4)noc2-3)cc1`, which GI50 is on record?
Answer: The GI50 was 1020 nM.
